Experimental data reported in patent US20260317324A1, “BIFUNCTIONAL COMPOUNDS FOR DEGRADING BRAF VIA UBIQUITIN PROTEOSOME PATHWAY” (Nurix Therapeutics, Inc., priority 2023, published 2026).

Biological target: T1, BRAF V600E (Homo sapiens, UniProt P15056, V600E)
T1 construct: endogenous C-terminal HiBiT fusion tag on BRAF V600E allele; endogenous in cells; host or cells: A375 clone 1F10 (CRISPR-Cas9 knock-in of the HiBiT tag; parental A375 from ATCC)
Experiment: BRAF HiBiT degradation assay, C-terminal HiBiT-tagged BRAF V600E A375 cells (clone 1F10), Nano-Glo HiBiT Lytic assay
Format: cell-based
Conditions: A375 (BRAF V600E); for DC50: DC50 at 50%: fitted conc. at Y=50; for Dmax: A-375, percentage protein degraded at maximal compound effect relative to DMSO
Excerpt: An A375 cell line expressing a homozygous V600E mutation was purchased from ATCC (Manassas, VA, USA). An A375 clone 1F10 cell line with an endogenous C-terminal HiBiT fusion tag on BRAF V600E allele was generated internally using CRISPR-Cas9 technology and cultured in DMEM, high glucose supplemented with 10% FBS and 1× GlutaMAX. A HCT-116 BRAF−/− cell line overexpressing the C-terminal HiBiT-tagged G466V, G469A, and D594G mutants were generated by lentiviral transduction, externally at Biosettia Inc (San Diego, CA, USA). The stably transfected cells were cultured in RPMI media supplemented with 10% FBS, 1× GlutaMAX, and 0.25 μg/ml puromycin. DMEM medium, RPMI 1640 medium, GlutaMAX, fetal bovine serum (FBS), and puromycin were purchased from Gibco (Grand Island, NY, USA). HCT-116 BRAF−/− cells were purchased from Horizon Discovery (Waterbeach, UK).
The C-terminal HiBiT tagged BRAF A375 cells (monoclonal cell line, cell clone 1F10) were seeded at a density of 10,000 cells/well in 30 μL media (DMEM, high glucose supplemented with 10% FBS and 1× GlutaMAX) in white opaque 384-well plates (Corning #3570) from column 1 to column 23. The wildtype A375 cells were seeded in column 24 at the same cell density in 30 μL media. Cells were incubated at 37° C. with 5% CO2 for 24 h.
Intermediate compound dilution series (5-point, ranging from 5 mM to 0.5 μM, 10-fold dilutions in DMSO) were prepared in a source plate (Beckman Coulter cat. no. 001-16128). Final compound dilution series (11-point, ranging from 1 μM to 0.01 nM, half-log dilutions in DMSO) were stamped into the assay plate (Corning #3570, column 1-11 and 12-22) using the Echo Acoustic Liquid Handler (Beckman Coulter). Each compound was plated in duplicate, and the total volume of compound DMSO solution was 60 nL/well (0.2% final DMSO concentration). DMSO was included in wells A23-L23 and A24-L24. The DMSO-treated HiBiT-tagged samples served as Negative Control (NC) and the DMSO-treated wildtype samples served as Background Control (BC) for the HiBiT assay.
HiBiT signal was measured by a Nano-Glo HiBiT Lytic assay (Promega cat. no. N3050). HiBiT lytic detection reagent (Nano-Glo HiBiT Lytic Buffer with 1:50 Nano-Glo HiBiT Lytic Substrate and 1:100 LgBiT Protein, 40 μL) was added using Bravo. The mixture was incubated at room temperature, in the dark, and with gentle shaking for 10 min. Luminesce units (LU) were read on an EnVision plate reader 2105 (Perkin Elmer).
Percent protein remaining and viability remaining per sample were calculated as follows: […]
% Protein remaining values were plotted as a function of compound concentration. XC50 (DC50) values were determined by fitting curves using the following equation:
For the HiBiT degradation assay, the key parameters reported include: • The dose of compound that produces 50% degradation (DC50 at 50%): • DC50 at 50%: the Fitted X value (Conc.) at Y=50 (response) • Observed Dmax (Obs. Dmax) is the percentage protein degraded at maximal compound effect relative to DMSO-treated control: […]

T1 sequence (P15056 whole entry V600E, the tested form may be a part): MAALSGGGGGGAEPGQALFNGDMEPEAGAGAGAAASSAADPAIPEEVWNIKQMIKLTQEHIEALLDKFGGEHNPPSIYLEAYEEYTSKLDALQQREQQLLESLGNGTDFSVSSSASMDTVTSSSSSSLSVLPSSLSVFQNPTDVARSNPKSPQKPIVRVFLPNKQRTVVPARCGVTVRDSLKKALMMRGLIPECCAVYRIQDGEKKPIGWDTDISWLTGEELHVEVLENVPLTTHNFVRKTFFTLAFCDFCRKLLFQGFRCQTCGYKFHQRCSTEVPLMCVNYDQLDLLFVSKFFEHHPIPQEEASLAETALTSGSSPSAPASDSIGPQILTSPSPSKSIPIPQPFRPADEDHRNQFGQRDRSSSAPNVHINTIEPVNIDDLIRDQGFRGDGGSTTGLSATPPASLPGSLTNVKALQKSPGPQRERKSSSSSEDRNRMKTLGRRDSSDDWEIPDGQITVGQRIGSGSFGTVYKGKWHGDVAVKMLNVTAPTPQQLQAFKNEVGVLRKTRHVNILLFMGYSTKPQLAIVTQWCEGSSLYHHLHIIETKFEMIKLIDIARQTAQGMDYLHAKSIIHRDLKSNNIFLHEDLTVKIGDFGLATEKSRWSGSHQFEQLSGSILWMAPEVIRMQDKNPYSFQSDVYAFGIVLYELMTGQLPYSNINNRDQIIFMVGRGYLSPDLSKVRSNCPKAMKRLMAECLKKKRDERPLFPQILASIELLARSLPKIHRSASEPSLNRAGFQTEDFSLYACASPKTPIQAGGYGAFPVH

Row | Compound | DC50 | Dmax
1 | CCCS(=O)(=O)Nc1cccc(-c2nc(C)sc2-c2ccnc(Nc3ccc(C4CCN(CC5CCN(c6ccc(C7CCC(=O)NC7=O)cn6)CC5)CC4)cc3)n2)c1F (racemic) [Compound 54, Rac-N-[3-(5-{2-[(4-{1-[(1-{5-[(3R)-2,6-dioxopiperidin-3-yl]pyridin-2-yl}piperidin-4-yl)methyl]piperidin-4-yl}phenyl)amino]pyrimidin-4-yl}-2-methyl-1,3-thiazol-4-yl)-2-fluorophenyl]propane-1-sulfonamide] | < 10 nM | > 70%
2 | CCCS(=O)(=O)Nc1cccc(-c2nc(C)sc2-c2ccnc(Nc3ccc(C4CCN(C(=O)C5CCN(c6ccc(C7CCC(=O)NC7=O)cn6)CC5)CC4)cc3)n2)c1F (racemic) [Compound 55, Rac-N-(3-{5-[2-({4-[1-(1-{5-[(3R)-2,6-dioxopiperidin-3-yl]pyridin-2-yl}piperidine-4-carbonyl)piperidin-4-yl]phenyl}amino)pyrimidin-4-yl]-2-methyl-1,3-thiazol-4-yl}-2-fluorophenyl)propane-1-sulfonamide] | 10 to 50 nM | > 70%
3 | CCCS(=O)(=O)Nc1cccc(-c2nc(C(C)(C)C)sc2-c2ccnc(Nc3cccc(OC4CCN(CC5CCN(c6ccc7c(=O)n(C8CCC(=O)NC8=O)ccc7c6)CC5)CC4)c3)n2)c1F (racemic) [Compound 71, Rac-N-{3-[2-tert-butyl-5-(2-{[3-({1-[(1-{2-[(3R)-2,6-dioxopiperidin-3-yl]-1-oxo-1,2-dihydroisoquinolin-6-yl}piperidin-4-yl)methyl]piperidin-4-yl}oxy)phenyl]amino}pyrimidin-4-yl)-1,3-thiazol-4-yl]-2-fluorophenyl}propane-1-sulfonamide] | 10 to 50 nM | 30 to 70%
4 | CCCS(=O)(=O)Nc1cccc(-c2nc(C(C)(C)C)sc2-c2ccnc(Nc3cccc(C4CCN(CC5(C)CCN(c6ccc(C7CCC(=O)NC7=O)cn6)CC5)CC4)c3)n2)c1F (racemic) [Compound 73, Rac-N-[3-(2-tert-butyl-5-{2-[(3-{1-[(1-{5-[(3R)-2,6-dioxopiperidin-3-yl]pyridin-2-yl}-4-methylpiperidin-4-yl)methyl]piperidin-4-yl}phenyl)amino]pyrimidin-4-yl}-1,3-thiazol-4-yl)-2-fluorophenyl]propane-1-sulfonamide] | 50 to 500 nM | 30 to 70%
5 | CCCS(=O)(=O)Nc1cccc(-c2nc(C(C)(C)C)sc2-c2ccnc(Nc3cnn(C4CCN(CC5CCN(c6ccc(C(=O)NC7CCC(=O)NC7=O)nc6)CC5)CC4)c3)n2)c1F (racemic) [Compound 79, Rac-5-{4-[(4-{4-[(4-{2-tert-butyl-4-[2-fluoro-3-(propane-1-sulfonamido)phenyl]-1,3-thiazol-5-yl}pyrimidin-2-yl)amino]-1H-pyrazol-1-yl}piperidin-1-yl)methyl]piperidin-1-yl}-N-[(3R)-2,6-dioxopiperidin-3-yl]pyridine-2-carboxamide] | < 10 nM | 30 to 70%
6 | CCCS(=O)(=O)Nc1cccc(-c2nc(C(C)(C)C)sc2-c2ccnc(Nc3cnn(CC4CCN(CC5CCN(c6ccc(C(=O)NC7CCC(=O)NC7=O)nc6)CC5)CC4)c3)n2)c1F (racemic) [Compound 82, Rac-5-(4-{[4-({4-[(4-{2-tert-butyl-4-[2-fluoro-3-(propane-1-sulfonamido)phenyl]-1,3-thiazol-5-yl}pyrimidin-2-yl)amino]-1H-pyrazol-1-yl}methyl)piperidin-1-yl]methyl}piperidin-1-yl)-N-[(3R)-2,6-dioxopiperidin-3-yl]pyridine-2-carboxamide] | 10 to 50 nM | 30 to 70%
7 | CCCS(=O)(=O)Nc1cccc(-c2nc(C(C)(C)C)sc2-c2ccnc(Nc3cccc(OC4CCN(C(=O)CN5CCN(c6cc(C7CCC(=O)NC7=O)ccn6)CC5)CC4)c3)n2)c1F (racemic) [Compound 93, Rac-N-{3-[2-tert-butyl-5-(2-{[3-({1-[2-(4-{4-[(3R)-2,6-dioxopiperidin-3-yl]pyridin-2-yl}piperazin-1-yl)acetyl]piperidin-4-yl}oxy)phenyl]amino}pyrimidin-4-yl)-1,3-thiazol-4-yl]-2-fluorophenyl}propane-1-sulfonamide] | 10 to 50 nM | 30 to 70%
8 | CCCS(=O)(=O)Nc1cccc(-c2nc(C(C)(C)C)sc2-c2ccnc(Nc3cccc(OC4CCN(C(=O)C5CCN(c6ccc(C(=O)NC7CCC(=O)NC7=O)nc6)CC5)CC4)c3)n2)c1F (racemic) [Compound 95, Rac-5-[4-(4-{3-[(4-{2-tert-butyl-4-[2-fluoro-3-(propane-1-sulfonamido)phenyl]-1,3-thiazol-5-yl}pyrimidin-2-yl)amino]phenoxy}piperidine-1-carbonyl)piperidin-1-yl]-N-[(3R)-2,6-dioxopiperidin-3-yl]pyridine-2-carboxamide] | 10 to 50 nM | 30 to 70%

Second part, the molecule after the results:

Row | DC50 | Dmax | Compound
9 | 10 to 50 nM | 30 to 70% | CCCS(=O)(=O)Nc1cccc(-c2nc(C(C)(C)C)sc2-c2ccnc(Nc3cccc(OC4CCN(C(=O)[C@H]5CC[C@H](Oc6ccc(C7CCC(=O)NC7=O)cc6)CC5)CC4)c3)n2)c1F (mixture of isomers) [Compound 98, N-{3-[2-tert-butyl-5-(2-{[3-({1-[(1r,4r)-4-{4-[(3RS)-2,6-dioxopiperidin-3-yl]phenoxy}cyclohexanecarbonyl]piperidin-4-yl}oxy)phenyl]amino}pyrimidin-4-yl)-1,3-thiazol-4-yl]-2-fluorophenyl}propane-1-sulfonamide]
10 | 10 to 50 nM | 30 to 70% | CCCS(=O)(=O)Nc1cccc(-c2nc(C(C)(C)C)sc2-c2ccnc(Nc3cccc(OC4CCN(C(=O)C5CCN(c6cccc(C7CCC(=O)NC7=O)c6)CC5)CC4)c3)n2)c1F (racemic) [Compound 99, Rac-N-[3-(2-tert-butyl-5-{2-[(3-{[1-(1-{3-[(3R)-2,6-dioxopiperidin-3-yl]phenyl}piperidine-4-carbonyl)piperidin-4-yl]oxy}phenyl)amino]pyrimidin-4-yl}-1,3-thiazol-4-yl)-2-fluorophenyl]propane-1-sulfonamide]
11 | 10 to 50 nM | > 70% | CCCS(=O)(=O)Nc1cccc(-c2nc(C(C)(C)C)sc2-c2ccnc(Nc3cccc(OC4CCN(C(=O)CN5CCc6cc(C7CCC(=O)NC7=O)ccc6C5)CC4)c3)n2)c1F (racemic) [Compound 101, Rac-N-[3-(2-tert-butyl-5-{2-[(3-{[1-(2-{6-[(3R)-2,6-dioxopiperidin-3-yl]-1,2,3,4-tetrahydroisoquinolin-2-yl}acetyl)piperidin-4-yl]oxy}phenyl)amino]pyrimidin-4-yl}-1,3-thiazol-4-yl)-2-fluorophenyl]propane-1-sulfonamide]
12 | 10 to 50 nM | 30 to 70% | CCCS(=O)(=O)Nc1cccc(-c2nc(C(C)(C)C)sc2-c2ccnc(Nc3cccc(C4CCN(C(=O)CN5CCC(c6ccc(NC7CCC(=O)NC7=O)cc6)CC5)CC4)c3)n2)c1F (racemic) [Compound 103, Rac-N-{3-[2-tert-butyl-5-(2-{[3-(1-{2-[4-(4-{[(3R)-2,6-dioxopiperidin-3-yl]amino}phenyl)piperidin-1-yl]acetyl}piperidin-4-yl)phenyl]amino}pyrimidin-4-yl)-1,3-thiazol-4-yl]-2-fluorophenyl}propane-1-sulfonamide]
13 | 50 to 500 nM | 30 to 70% | CCCS(=O)(=O)Nc1cccc(-c2nc(C(C)(C)C)sc2-c2ccnc(Nc3cccc(C4CCN(C(=O)CN5CCc6cc(C7CCC(=O)NC7=O)ccc6C5)CC4)c3)n2)c1F (racemic) [Compound 104, Rac-N-(3-{2-tert-butyl-5-[2-({3-[1-(2-{6-[(3R)-2,6-dioxopiperidin-3-yl]-1,2,3,4-tetrahydroisoquinolin-2-yl}acetyl)piperidin-4-yl]phenyl}amino)pyrimidin-4-yl]-1,3-thiazol-4-yl}-2-fluorophenyl)propane-1-sulfonamide]
